Assay: Example 7: 1-MCP permeation through polyethylene film from PSA label into 1,000 mL headspace
Assay type: physicochemical
Settings: 11 cm diameter PSA label on 25 μm PE film, 1,000 mL kettle
From the text: This method is designed to measure the permeability of 1-MCP through polyethylene film into a confined, fixed volume headspace following release from a PSA label adhered to the surface of the film defining the fixed volume. The methodology simulates the headspace of a flexible film package having initially low relative humidity, wherein a PSA label containing 1-MCP is adhered to the outside of the package. As the humidity rises inside the package by respiration of fresh agricultural products, the water vapor increases in concentration and it diffuses through the package film to the outside environment but also into the PSA. Thus, as the water vapor diffuses through the film into the 1-MCP adhesive label adhered to the outside of the package film; 1-MCP released from the label adhesive into the fixed volume (headspace) was measured.
A coated, cured labelstock sheet made according to the procedure of Example 6 was cut by hand into an 11 cm diameter circle. Next the PET liner was removed from the label and the label was adhered via the PSA to a 13.5 cm diameter, 1 mil (25 μm) thick polyethylene (PE) film (obtained from the Pliant Corporation of Schaumburg, Ill.). The paper side of this structure was then covered with aluminum foil. The foil/paper/PSA/PE layered structure was mounted onto the open end of a 1,000 mL glass reaction kettle bottom (6947-1LBO, from Corning Glass of Corning, N.Y.) and sealed to the kettle's glass flange using aluminum sealing rings. The layered structure was oriented over the 11 cm opening with the PE film facing in and the aluminum facing out. The glass reaction kettle was modified with a silicone septum port to allow sampling of the 1,000 mL headspace. Headspace analysis was conducted by removing 250 μL of headspace volume from the 1,000 mL glass kettle and analyzing according to the technique of Example 3.
Then 200 μL of water was added through the septum port to the inside of the glass kettle. The headspace was analyzed for 1-MCP at 17, 25 and 90 hours after the injection of water using the technique employed in Example 3. At 17 hours, 25 hours, and 90 hours after injection of the water, the 1-MCP headspace concentration was 3.6 ppm, 7.0 ppm and 8.0 ppm of 1-MCP, respectively.

CC1=CC1 [1-MCP, 1-methylcyclopropene]
1-MCP headspace concentration (200 μL water, 17 hours): 3.6 ppm | 1-MCP headspace concentration (200 μL water, 25 hours): 7.0 ppm | 1-MCP headspace concentration (200 μL water, 90 hours): 8.0 ppm | 1-MCP headspace concentration (no added water, two hours): < 0.01 ppm

Source: patent publication US8414989B2, “Cyclodextrin compositions, articles, and methods” (Cellresin Technologies, LLC, priority 2011, dated 2013)
